# According to paper PMC10600239, “Selective MCL-1 inhibitor ABBV-467 is efficacious in tumor models but is associated with cardiac troponin increases in patients” (Communications Medicine, 2023):
# Where “and” joins values, the source holds several entries; their conditions need not be identical. Equal entries are not always repeated.
# Test system: OPM-2 xenografts
# Assay: OPM-2 xenograft efficacy (tumor volume, body weight)
# Type: in vivo, mouse
# Conditions: for Tumor Volume (mm³) Day 27, Mean: group mean; for Tumor Volume (mm³) Day 27, Median: group median; for Tumor Volume (mm³) Day 27 / Tumor Volume (mm³) Day 30 / Tumor Volume (mm³) Day 34: individual animals; for Tumor Volume (mm³) Day 23 (individual animals) / Tumor Volume Day 23, Mean / Tumor Volume Day 23, Median / % T/C (mean) / % T/C (median): Day 23
# Description: All animal studies were conducted in accordance with the guidelines approved by the Institutional Animal Care and Use Committees of AbbVie. The research protocol was approved by In Vivo Pharmacology at AbbVie prior to study initiation but was not publicly registered or disclosed. Female C.B-17 SCID-beige mice (AMO-1, OPM-2, NCI-H929, and OCI-AML2 xenografts) and female NSG mice (MV4-11-Red.Fluc systemic) were purchased from Charles River Laboratories (Wilmington, MA). Animals were housed in a light cycle-controlled room with HEPA filtration at 22 °C. Animals had nesting and climbing cage topper as the primary environmental enrichment. Animals were inoculated subcutaneously in the right flank with 5 × 10^6 (AMO-1, OPM-2, NCI-H929, and OCI-AML2) or intravenous (IV) with 5 × 10^6 (MV4-11-Red.Fluc). The inoculation volume (0.2 mL) comprised a 50:50 mixture of cells in growth media and Matrigel (BD Biosciences) for subcutaneous injections and 100% phosphate-buffered saline for IV administration. All cell lines used in this publication were authenticated using IDEXX for STR profiling as well as their IMPACT and human IMPACT panels for pathogen screening. Electronic calipers were used to measure the length and width of each tumor 2 to 3 times per week. Tumor volume was estimated by applying the following equation: volume = length × width^2/2. All groups remained blinded during measurements and dosing; only veterinary staff were aware of group identity. When tumors reached approximately 200 mm^3, mice were randomized by match and distributed into treatment and control groups. All xenograft trials were conducted using 5 to 10 mice per group, and all mice were ear tagged and monitored individually throughout the studies. Any animal with a tumor above 2000 mm^3 or 15% loss in body weight was euthanized and removed from the study. Tumor burden in the systemic MV4-11-Red.Fluc experiment was measured using an IVIS® spectrum from PerkinElmer by taking the total photon flux of the entire dorsal side of an individual mouse. Ten minutes prior to imaging, animals received intraperitoneally 0.2 mL of a 15-mg/mL solution of D-Luciferin (PerkinElmer, Catalog #122799) formulated in 100% phosphate-buffered saline. Animals were anesthetized using 3.5% isoflurane and maintained using 2%. Six days after inoculation, animals were imaged and randomized into vehicle and treatment groups at a total flux of ~1 × 10^8. A background control mouse that was tumor naive but received D-Luciferin was placed in the upper left corner of each image. The total flux from this animal was subtracted from the total flux of each animal present in the image.
# For in vivo studies, maximal tumor growth inhibition (TGI) was calculated as the greatest treatment response using the following equation: Maximal TGI = (1 − mean tumor volume of the treated group/mean tumor volume of the vehicle control group) × 100. The tumor growth delay (TGD) percentage was determined as the percentage increase of the median time period for the treatment group to reach an arbitrary tumor volume of 1000 mm^3 relative to the vehicle control group. […] A power analysis was conducted using historical data to determine the number of animals required to yield significance of 0.05 at a 30% difference. There were no animals excluded. Data from experiments in vivo were analyzed using the student’s t-test for TGI values and the Mann–Whitney U test for TGD using Excel and GraphPad Prism. Fisher’s exact test was used to probe significance of differences in response frequency.
# [1] = 6.25 mg/kg q7dx3 IV, mean(T)/mean(C)
# [2] = 6.25 mg/kg q7dx3 IV, median(T)/median(C)
# [3] = 6.25 mg/kg q7dx3 IV, SCID-beige mice
# [4] = 6.25 mg/kg q7dx3 IV, OPM-2 (DSMZ) xenograft, SCID-beige mice
# [5] = 25 mg/kg q7dx3 IV, mean(T)/mean(C)
# [6] = 25 mg/kg q7dx3 IV, median(T)/median(C)
# [7] = 25 mg/kg q7dx3 IV, SCID-beige mice
# [8] = 25 mg/kg q7dx3 IV, OPM-2 (DSMZ) xenograft, SCID-beige mice
# [9] = OPM-2 (DSMZ) xenograft, SCID-beige mice, 6.25 mg/kg q7dx3 IV
# [10] = OPM-2 (DSMZ) xenograft, SCID-beige mice, 25 mg/kg q7dx3 IV
smiles,measurement,setting,value
Cc1c(Cl)c2c(Cl)c(C)c1-c1c(-c3ccc(F)cc3)sc3ncnc(c13)O[C@@H](C(=O)O)Cc1cc(ccc1OCc1ccnc(-c3ccc(OC[C@H]4COCCO4)cc3)n1)OC[C@@H](CN1CCN(C)CC1)O2 [Compound A-1747745],% Mortality,"6.25 mg/kg IV q7dx3, clinical observation, SCID-beige mice, OPM-2 (DSMZ) xenograft",100.00%
same,"Tumor Volume (mm³) Day 27, Mean",6.25 mg/kg q7dx3 IV,468.28 mm³
same,"Tumor Volume (mm³) Day 27, Median",6.25 mg/kg q7dx3 IV,424.66 mm³
same,Tumor Volume (mm³) Day 27,6.25 mg/kg q7dx3 IV,369 mm³ and 671 mm³ and 322 mm³ and 348 mm³ and 352 mm³ and 673 mm³ and 481 mm³ and 531 mm³
same,"Body Weight Day 27, % T/C (mean)",[1],97.79%
same,"Tumor Volume Day 27, % T/C (mean)",[1],49.20%
same,"Body Weight Day 27, % T/C (median)",[2],97.79%
same,"Tumor Volume Day 27, % T/C (median)",[2],41.20%
same,"% T/C (mean), Tumor Volume Day 30",6.25 mg/kg q7dx3 IV,42.91%
same,"% T/C (median), Tumor Volume Day 30",6.25 mg/kg q7dx3 IV,42.72%
same,"Tumor Volume Day 30, Mean",6.25 mg/kg q7dx3 IV,634.52 mm³
same,"Tumor Volume Day 30, Median",6.25 mg/kg q7dx3 IV,618.80 mm³
same,Tumor Volume (mm³) Day 30,[3],375 mm³ and 897 mm³ and 567 mm³ and 528 mm³ and 560 mm³ and 806 mm³ and 673 mm³ and 670 mm³
same,"Tumor Volume Day 34, Mean",6.25 mg/kg q7dx3 IV,930.42 mm³
same,"Tumor Volume Day 34, Median",6.25 mg/kg q7dx3 IV,940.62 mm³
same,Tumor Volume (mm³) Day 34,[3],591 mm³ and 1061 mm³ and 690 mm³ and 703 mm³ and 1071 mm³ and 821 mm³ and 1142 mm³ and 1365 mm³
same,Tumor Volume (mm³) Day 23 (individual animals),[4],264 mm³ and 376 mm³ and 277 mm³ (2×) and 196 mm³ and 349 mm³ and 392 mm³ and 253 mm³
same,"Tumor Volume Day 23, Mean",[4],298.00 mm³
same,"Tumor Volume Day 23, Median",[4],276.63 mm³
same,% T/C (mean),"6.25 mg/kg q7dx3 IV, OPM-2 (DSMZ) xenograft, mean(T)/mean(C)",68.08%
same,% T/C (median),"6.25 mg/kg q7dx3 IV, OPM-2 (DSMZ) xenograft, median(T)/median(C)",67.57%
same,% Mortality,"25 mg/kg IV q7dx3, clinical observation, SCID-beige mice, OPM-2 (DSMZ) xenograft",0.00%
same,% BW Loss,"25 mg/kg IV q7dx3, day 27, clinical observation",-2% (day 27)
same,"Tumor Volume (mm³) Day 27, Mean",25 mg/kg q7dx3 IV,75.56 mm³
same,"Tumor Volume (mm³) Day 27, Median",25 mg/kg q7dx3 IV,79.55 mm³
same,Tumor Volume (mm³) Day 27,25 mg/kg q7dx3 IV,109 mm³ and 83 mm³ and 115 mm³ and 60 mm³ and 69 mm³ and 4 mm³ and 77 mm³ and 88 mm³
same,"Body Weight Day 27, % T/C (mean)",[5],101.28%
same,"Tumor Volume Day 27, % T/C (mean)",[5],7.94%
same,"Body Weight Day 27, % T/C (median)",[6],101.28%
same,"Tumor Volume Day 27, % T/C (median)",[6],7.72%
same,"% T/C (mean), Tumor Volume Day 30",25 mg/kg q7dx3 IV,2.78%
same,"% T/C (median), Tumor Volume Day 30",25 mg/kg q7dx3 IV,0.28%
same,"Tumor Volume Day 30, Mean",25 mg/kg q7dx3 IV,41.06 mm³
same,"Tumor Volume Day 30, Median",25 mg/kg q7dx3 IV,4.00 mm³
same,Tumor Volume (mm³) Day 30,[7],135 mm³ and 4 mm³ (5×) and 87 mm³ (2×)
same,"Tumor Volume Day 34, Mean",25 mg/kg q7dx3 IV,4.00 mm³
same,"Tumor Volume Day 34, Median",25 mg/kg q7dx3 IV,4.00 mm³
same,Tumor Volume (mm³) Day 34,[7],4 mm³
same,Tumor Volume (mm³) Day 23 (individual animals),[8],275 mm³ and 201 mm³ and 232 mm³ and 269 mm³ and 236 mm³ and 126 mm³ and 388 mm³ and 205 mm³
same,"Tumor Volume Day 23, Mean",[8],241.42 mm³
same,"Tumor Volume Day 23, Median",[8],233.81 mm³
same,% T/C (mean),"25 mg/kg q7dx3 IV, OPM-2 (DSMZ) xenograft, mean(T)/mean(C)",55.16%
same,% T/C (median),"25 mg/kg q7dx3 IV, OPM-2 (DSMZ) xenograft, median(T)/median(C)",57.11%
same,"Tumor Volume Day 20, Mean",[9],237.41 mm³
same,"Tumor Volume Day 20, Median",[9],234.06 mm³
same,"Tumor Volume (mm³) Day 20, individual animals","OPM-2 (DSMZ) xenograft, SCID-beige mice, 6.25 mg/kg q7dx3 IV, 6.25 mg/kg",217 mm³ and 238 mm³ and 188 mm³ and 184 mm³ and 290 mm³ and 300 mm³ and 252 mm³ and 230 mm³
same,"Tumor Volume Day 20, % T/C (mean)","OPM-2 (DSMZ) xenograft, SCID-beige mice, 6.25 mg/kg q7dx3 IV, mean(T)/mean(C)",99.97%
same,"Tumor Volume Day 20, % T/C (median)","OPM-2 (DSMZ) xenograft, SCID-beige mice, 6.25 mg/kg q7dx3 IV, median(T)/median(C)",101.50%
same,"Body Weight Day 21, % T/C (mean)","OPM-2 (DSMZ) xenograft, SCID-beige mice, 6.25 mg/kg q7dx3 IV, Day 21, mean(T)/mean(C)",100.00%
same,"Body Weight Day 21, % T/C (median)","OPM-2 (DSMZ) xenograft, SCID-beige mice, 6.25 mg/kg q7dx3 IV, Day 21, median(T)/median(C)",100.00%
same,"Tumor Volume Day 20, Mean",[10],237.54 mm³
same,"Tumor Volume Day 20, Median",[10],238.03 mm³
same,"Tumor Volume (mm³) Day 20, individual animals","OPM-2 (DSMZ) xenograft, SCID-beige mice, 25 mg/kg q7dx3 IV, 25 mg/kg",283 mm³ and 220 mm³ and 249 mm³ and 228 mm³ and 248 mm³ and 178 mm³ and 301 mm³ and 193 mm³
same,"Tumor Volume Day 20, % T/C (mean)","OPM-2 (DSMZ) xenograft, SCID-beige mice, 25 mg/kg q7dx3 IV, mean(T)/mean(C)",100.03%
same,"Tumor Volume Day 20, % T/C (median)","OPM-2 (DSMZ) xenograft, SCID-beige mice, 25 mg/kg q7dx3 IV, median(T)/median(C)",103.23%
